{
  "source": "patent US20240277890A1",
  "about": "“ANTIMICROBIAL ARTICLES COMPRISING POLYURETHANE” (Amicoat AS, priority 2021, published 2024)",
  "key": {"[1]": {"test_system": "Staphylococcus aureus - teicoplanin-intermediate clinical isolate"}, "[2]": {"test_system": "Streptococcus agalactiae - macrolide-resistant clinical isolate"}, "[3]": {"test_system": "Staphylococcus aureus, strain ATCC 25923", "conditions": "ATCC 25923"}, "[4]": {"test_system": "Corynebacterium jeikeium - multi-drug resistant clinical isolate"}, "[5]": {"test_system": "Candida albicans ATCC90028 - reference strain"}, "[6]": {"test_system": "Group C Streptococcus - antibiotic-susceptible clinical isolate"}, "[7]": {"test_system": "Enterobacter sp - multi-drug resistant clinical isolate"}, "[8]": {"test_system": "Escherichia coli ATCC25922 - antibiotic-susceptible type strain", "conditions": "ATCC25922"}, "[9]": {"test_system": "Salmonella sp - antibiotic-susceptible clinical isolate", "test": "MIC microbroth dilution (CLSI)", "assay_type": "cell-based"}, "[10]": {"test_system": "Staphylococcus saprophyticus - antibiotic susceptible clinical isolate"}, "[11]": {"test_system": "Streptococcus bovis - macrolide-resistant clinical isolate"}, "[12]": {"test_system": "Microsporum canis - G.R. Micro collection"}, "[13]": {"test_system": "Escherichia coli ATCC32518 - β-lactamase positive type strain"}, "[14]": {"test_system": "Aspergillus niger - G.R. Micro collection"}, "[15]": {"test_system": "Salmonella sp - multi-drug resistant clinical isolate", "test": "MIC microbroth dilution (CLSI)", "assay_type": "cell-based"}, "[16]": {"test_system": "Candida albicans ATCC24433 - reference strain"}, "[17]": {"test_system": "Enterococcus faecalis vancomycin-susceptible clinical isolate"}, "[18]": {"test_system": "Enterococcus faecalis vancomycin-resistant (VanB) clinical isolate"}, "[19]": {"test_system": "Klebsiella aerogenes - multi-drug resistant clinical isolate"}, "[20]": {"test_system": "Enterococcus faecium vancomycin-resistant (VanB) clinical isolate"}, "[21]": {"test_system": "E. coli"}, "[22]": {"test_system": "Enterococcus faecalis - ATCC 29212 antibiotic-susceptible control strain", "conditions": "ATCC 29212"}, "[23]": {"test_system": "Enterococcus faecium vancomycin-resistant (VanA) clinical isolate"}, "[24]": {"test_system": "P. aeruginosa"}, "[25]": {"test_system": "Streptococcus pneumoniae - penicillin-susceptible clinical isolate"}, "[26]": {"test_system": "Haemophilus influenzae β-lactamase negative ampicillin-resistant clinical isolate"}, "[27]": {"test_system": "C. albicans"}, "[28]": {"test_system": "Methicillin resistant Staphylococcus epidermidis (MRSE) strain ATCC 27626", "conditions": "ATCC 27626"}, "[29]": {"test_system": "Trichophyton mentagrophytes - G.R. Micro collection"}, "[30]": {"test_system": "Staphylococcus aureus ATCC 43300 - methicillin-resistant control strain"}, "[31]": {"test_system": "Staphylococcus epidermidis methicillin-resistant clinical isolate"}, "[32]": {"test_system": "S. pyogenes"}, "[33]": {"test_system": "Enterococcus faecium vancomycin-susceptible clinical isolate"}, "[34]": {"test_system": "Staphylococcus aureus FDA486", "test": "Murine skin infection model, one day topical treatment", "assay_type": "in vivo, mice", "conditions": "2% cream; compared to placebo cream, Fucidin ointment 2% and Bactroban cream 2%", "description": "The skin of mice was infected with Staphylococcus aureus or Streptococcus pyogenes and subsequently given a total of three treatments at three hourly intervals. Three hours after the last treatment, skin biopsies were collected and the number of colony forming units (CFUs) present in the skin sample was determined. Results are shown in FIGS. 3, 4 and 5 expressed as the number of colony forming units per mouse."}, "[35]": {"test_system": "Pseudomonas aeruginosa - multi-drug resistant clinical isolate"}, "[36]": {"test_system": "HT2001254 Staphylococcus aureus (MRSA) - PVL positive", "conditions": "HT2001254 S. aureus (MRSA) PVL positive"}, "[37]": {"test_system": "Stenotrophomonas maltophilia - antibiotic-susceptible clinical isolate"}, "[38]": {"test_system": "Staphylococcus haemolyticus - antibiotic susceptible clinical isolate"}, "[39]": {"test_system": "Group G Streptococcus - antibiotic-susceptible clinical isolate"}, "[40]": {"test_system": "Streptococcus bovis - antibiotic-susceptible clinical isolate"}},
  "data": [
    {"smiles": "CCCCCCNC(=O)[C@H](CCCNC(=N)N)NC(=O)[C@H](Cc1c(C(C)(C)C)[nH]c2c(C(C)(C)C)cc(C(C)(C)C)cc12)NC(=O)[C@@H](N)CCCNC(=N)N", "note": "[Compound 8]", "values": [
      {"measurement": "MIC", "setting": "[1]", "value": 4, "unit": "µg/mL"},
      {"measurement": "MIC", "setting": "[2]", "value": 8, "unit": "µg/mL"},
      {"measurement": "S. aureus (MIC)", "setting": "[3]", "value": 2, "unit": "µg/mL"},
      {"measurement": "MIC", "setting": "[4]", "value": 2, "unit": "µg/mL"},
      {"measurement": "MIC", "setting": "[5]", "value": 4, "unit": "µg/mL"},
      {"measurement": "MIC", "setting": "[6]", "value": 8, "unit": "µg/mL"},
      {"measurement": "MIC", "setting": "[7]", "value": 8, "unit": "µg/mL"},
      {"measurement": "MIC", "setting": "[8]", "value": 4, "unit": "µg/mL"},
      {"measurement": "MIC", "setting": "[9]", "value": 8, "unit": "µg/mL"},
      {"measurement": "MIC", "setting": "[10]", "value": 0.5, "unit": "µg/mL"},
      {"measurement": "MIC", "setting": "[11]", "value": 2, "unit": "µg/mL"},
      {"measurement": "MIC", "setting": "[12]", "value": 4, "unit": "µg/mL"},
      {"measurement": "MIC", "setting": "[13]", "value": 8, "unit": "µg/mL"},
      {"measurement": "MIC", "setting": "[14]", "value": 4, "unit": "µg/mL"},
      {"measurement": "MIC", "setting": "[15]", "value": 8, "unit": "µg/mL"},
      {"measurement": "MIC", "setting": "[16]", "value": 8, "unit": "µg/mL"},
      {"measurement": "MIC", "setting": "[17]", "value": 4, "unit": "µg/mL"},
      {"measurement": "MIC", "setting": "[18]", "value": 8, "unit": "µg/mL"},
      {"measurement": "MIC", "setting": "[19]", "value": 8, "unit": "µg/mL"},
      {"measurement": "MIC", "setting": "[20]", "value": 4, "unit": "µg/mL"},
      {"measurement": "E. coli (MIC)", "setting": "[21]", "value": 5, "unit": "µg/mL"},
      {"measurement": "MIC", "setting": "[22]", "value": 4, "unit": "µg/mL"},
      {"measurement": "MIC", "setting": "[23]", "value": 4, "unit": "µg/mL"},
      {"measurement": "P. aeruginosa (MIC)", "setting": "[24]", "value": 5, "unit": "µg/mL"},
      {"measurement": "MIC", "setting": "[25]", "value": 8, "unit": "µg/mL"},
      {"measurement": "MIC", "setting": "[26]", "value": 8, "unit": "µg/mL"},
      {"measurement": "C. albicans (MIC)", "setting": "[27]", "value": 5, "unit": "µg/mL"},
      {"measurement": "MRSE (MIC)", "setting": "[28]", "value": "<1", "unit": "µg/mL"},
      {"measurement": "MIC", "setting": "[29]", "value": 4, "unit": "µg/mL"},
      {"measurement": "MIC", "setting": "[30]", "value": 4, "unit": "µg/mL"},
      {"measurement": "MIC", "setting": "[31]", "value": 2, "unit": "µg/mL"},
      {"measurement": "S. pyogenes (MIC)", "setting": "[32]", "value": 2, "unit": "µg/mL"},
      {"measurement": "MIC", "setting": "[33]", "value": 4, "unit": "µg/mL"},
      {"measurement": "number of CFUs in skin biopsy", "setting": "[34]", "value": "more effective at reducing the number of CFUs than the placebo and fucidin or bactroban"},
      {"measurement": "MIC", "setting": "[35]", "value": 4, "unit": "µg/mL"},
      {"measurement": "MIC", "setting": "[36]", "value": 4, "unit": "µg/mL"},
      {"measurement": "MIC", "setting": "[37]", "value": 4, "unit": "µg/mL"},
      {"measurement": "MIC", "setting": "[38]", "value": 4, "unit": "µg/mL"},
      {"measurement": "MIC", "setting": "[39]", "value": 8, "unit": "µg/mL"},
      {"measurement": "MIC", "setting": "[40]", "value": 8, "unit": "µg/mL"}
    ]}
  ]
}
